Here are results for one molecule from patent US20250213587A1, “ITK INHIBITORS FOR INCREASING TH1 CELL ACTIVITY” (Corvus Pharmaceuticals, Inc., priority 2022, published 2025).

Assay [1] deals with T1, ITK (Homo sapiens, UniProt Q08881).
T1 sequence (Q08881 1-620): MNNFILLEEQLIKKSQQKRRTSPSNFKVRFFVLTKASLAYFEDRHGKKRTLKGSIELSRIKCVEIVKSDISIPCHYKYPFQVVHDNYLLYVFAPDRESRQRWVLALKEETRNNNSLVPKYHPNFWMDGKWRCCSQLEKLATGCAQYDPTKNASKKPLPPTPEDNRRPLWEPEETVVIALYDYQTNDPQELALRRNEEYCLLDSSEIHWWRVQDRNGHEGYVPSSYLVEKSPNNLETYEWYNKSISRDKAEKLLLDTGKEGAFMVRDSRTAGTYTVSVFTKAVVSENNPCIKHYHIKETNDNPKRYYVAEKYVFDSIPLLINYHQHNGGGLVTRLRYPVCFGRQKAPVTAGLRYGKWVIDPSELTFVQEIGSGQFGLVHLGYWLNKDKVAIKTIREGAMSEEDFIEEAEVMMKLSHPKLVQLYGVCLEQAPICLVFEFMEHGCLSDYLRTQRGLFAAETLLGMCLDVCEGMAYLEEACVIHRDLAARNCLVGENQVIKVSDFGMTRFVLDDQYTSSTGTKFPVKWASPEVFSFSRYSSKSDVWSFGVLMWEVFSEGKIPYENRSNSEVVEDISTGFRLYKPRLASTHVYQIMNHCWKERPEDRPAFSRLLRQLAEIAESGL
Description: Human kinome profiling at 1.0 μM, ITK. Type of assay: biochemical. Also noted: purchased Invitrogen.

In assay [2] the test system is Th1, Th17, CD4+ effector cells, eosinophils. Description: Blood and tumor cell changes in treated lymphoma patients. Type of assay: in vivo, human.
Another assay concerns the target T2, RLK (Homo sapiens, UniProt P42681).
T2 construct: purchased Invitrogen PV5860
In words: Human kinome profiling at 1.0 μM, RLK. Format: biochemical. Particulars: read-out: percent control, RLK.

Assay [3] has as its target T3, ITK (Canis lupus familiaris, UniProt A0A8I3MMK2).
T3 construct: from tissue; host or cells: PBMC of dosed dogs
Description: ITK occupancy in dog PBMC. The following applies: po, single 5 mg/kg PO. Type of assay: in vivo. How it is done: The active site occupancy of ITK by a covalent inhibitor was measured using an irreversibly bound biotinylated probe in an immuno-electrochemiluminescence assay. The binding of an inhibitor and the probe to the ATP binding site is mutually exclusive. In lysates of immune cell lines or immune cells collected from treated animals, the biotinylated probe reacts with free (uninhibited) ITK and is subsequently captured on a streptavidin-coated surface and quantified. The free ITK in each sample is normalized by dividing it by either the lysate protein concentration (BCA protein assay, Pierce) or cell count of the sample. Normalized free ITK values are generated for samples collected prior to and after treatment from which occupancy was calculated using equation 7. Single cell suspensions of Jurkat cells, mouse splenocytes, dog PBMC or purified normal human T cells were prepared. Cell lysis was performed using a buffer containing CelLytic M (Sigma Aldrich) supplemented with protease and phosphatase inhibitors (Pierce). The cell pellet resuspended in lysis buffer was incubated at room temperature for 30 minutes when the lysate was clarified by centrifugation at 20,000×g for 5 minutes at 4° C. […] Read buffer (Mesoscale Diagnostics) diluted two-fold with water was dispensed into the wells of the plate which was read immediately using an MESO Quickplex SQ 120 instrument.

Assay [4] relates to colitis in C.B-17 SCID mice. Description: Mouse T cell adoptive transfer colitis model. Format: in vivo. On the procedure:
To enable long-term dosing in animal studies, a CPI-818-formulated mouse diet (300 mg/kg/day), and a control diet, with macronutrient levels matching the common Teklad 2018 diet were created (Research Diets, Inc.). Adequate drug exposure was confirmed by standard LC-MS method in plasma samples. Female BALB/c mice (11-12 weeks old) and female Fox Chase C.B-17 severe combined immunodeficient (SCID) mice (6-7 weeks old) were purchased from Charles River Laboratories. […] A third group on control diet was treated weekly via intraperitoneal (IP) route with 0.5 mg/mouse of anti-IL-12 p40 (clone C17.8) (BioXcell BE0051). On study day 0, SCID mice were injected IP with 4×10^5 CD4^+CD45RB^hi splenic T cells from BALB/c mice. On study day 48, animals were sacrificed. Colons were harvested for measurements. The distal section was preserved in 10% neutral buffered formalin, embedded into paraffin blocks, and sent to HistoTox Labs, Inc. for histologic analyses. Therapeutic efficacy was based on body weights, colon weights, and colon lengths. This study was carried out at Bolder BioPATH, Inc. in accordance with the test facility standard operating procedures, the World Health Organization Quality Practices in Basic Biomedical Research guidelines, and in compliance with all state and federal regulations.
Each slide containing 3 cross sections of the distal colon from each animal was stained with hematoxylin and eosin (H&E), or with an anti-CD3 antibody, and evaluated by a board-certified veterinary pathologist blinded to treatment information. Histologic lesions in H&E-stained slides were scored separately for severity 0-5, where 0=absent, 1=minimal, 2=mild, 3=moderate, 4=marked, 5=severe. Anti-CD3-stained slides were scanned using an Aperio AT2 whole slide scanner. Exclusions were applied to remove debris and tissue artifacts from the analyzed area. An algorithm was applied to the samples using Visiopharm (VIS) image analysis software. A count-based thresholding method was utilized to determine positivity of each pixel on the slide. The average of the three colon samples per slide was taken to determine both the number of immunolabeled CD3 cells and the total area of the colon. The output images underwent a quality control check after analysis was complete. CD3-immunolabeled cell density was calculated per 10,000 μm^2 using the following formula: […]
The body weights over time between two groups of animals were compared using the two-way analysis of variance (2-way ANOVA) method. Organ weights or lengths were compared using a Student's unpaired, two-tailed, t-test with Welch's correction. All statistical analyses were performed using Prism Version 8.3.0 (GraphPad Software).

“Also recorded” adds a separate entry of the source.

T3 sequence (A0A8I3MMK2 1-620): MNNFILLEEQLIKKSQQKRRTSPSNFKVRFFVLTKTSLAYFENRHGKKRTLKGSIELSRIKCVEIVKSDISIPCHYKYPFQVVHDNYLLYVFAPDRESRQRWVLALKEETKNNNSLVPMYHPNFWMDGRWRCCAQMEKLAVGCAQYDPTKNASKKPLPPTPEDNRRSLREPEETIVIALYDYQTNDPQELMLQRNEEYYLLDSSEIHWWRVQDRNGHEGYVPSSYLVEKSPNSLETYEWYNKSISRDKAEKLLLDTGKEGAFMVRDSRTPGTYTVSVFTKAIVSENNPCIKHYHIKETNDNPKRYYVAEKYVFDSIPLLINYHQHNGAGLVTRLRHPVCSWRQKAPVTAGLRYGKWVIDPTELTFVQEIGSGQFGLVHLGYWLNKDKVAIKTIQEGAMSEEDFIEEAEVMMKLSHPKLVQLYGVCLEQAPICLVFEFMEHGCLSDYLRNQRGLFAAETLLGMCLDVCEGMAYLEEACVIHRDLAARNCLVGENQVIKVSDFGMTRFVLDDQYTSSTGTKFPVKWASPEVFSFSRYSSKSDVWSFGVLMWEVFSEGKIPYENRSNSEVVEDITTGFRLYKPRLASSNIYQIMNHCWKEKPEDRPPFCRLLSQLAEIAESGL
T2 sequence (P42681 whole entry): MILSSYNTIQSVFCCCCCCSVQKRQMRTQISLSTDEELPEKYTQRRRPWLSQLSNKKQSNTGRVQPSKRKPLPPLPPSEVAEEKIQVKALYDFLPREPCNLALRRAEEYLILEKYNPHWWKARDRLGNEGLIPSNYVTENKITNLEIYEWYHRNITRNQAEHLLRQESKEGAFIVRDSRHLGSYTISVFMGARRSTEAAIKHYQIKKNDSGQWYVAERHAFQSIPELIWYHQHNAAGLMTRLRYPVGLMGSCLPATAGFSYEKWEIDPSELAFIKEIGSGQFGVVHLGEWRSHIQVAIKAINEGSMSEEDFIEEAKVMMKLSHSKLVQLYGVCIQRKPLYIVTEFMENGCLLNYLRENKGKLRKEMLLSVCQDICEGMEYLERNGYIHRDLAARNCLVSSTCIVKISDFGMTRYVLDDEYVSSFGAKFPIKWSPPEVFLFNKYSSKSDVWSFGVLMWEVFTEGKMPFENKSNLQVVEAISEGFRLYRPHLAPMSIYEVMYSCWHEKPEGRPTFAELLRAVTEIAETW

By inhibition is commonly meant how much of the control response was suppressed. Higher therefore signals a strong effect. The molecule `C=CC(=O)N1CCCN(C(=O)c2cc(Sc3cnc(NC(=O)C4CC4)s3)c(C)cc2OC)C[C@H]1C` [CPI-818] displayed an inhibition at 1 µM against ITK [1] of more than 95%. Further, the “CD4+ effector cells” value in assay [2] (blood and tumor, 200 mg BID) was “increases”. The Th17 pro-inflammatory cells entry in assay [2] (lymphoma patient) is recorded as “decrease”. Besides, the Th1 cells result in assay [2] (lymphoma patient, blood/tumor) is given as “increases”. Besides, the eosinophils result in assay [2] (patient on therapy) was “decreased while on therapy; also recorded: marked reduction”. The remaining activity at 1 µM at RLK was determined as 70%. The values for the receptor occupancy at 5 mg/kg on ITK [3] (2 h) and at ITK [3] (24 h) were 91% and 31%, respectively. For the same molecule, the “protection from colitis (diarrhea, weight loss)” value in assay [4] (diet 300 mg/kg/day from one week before transfer) is on record as “protected from colitis”. Also, in assay [4] (histology), the “infiltration of CD3+ T cells in colon” value is listed as “blocked the infiltration of CD3^+ T cells; also recorded: prevented infiltration of CD3+ T cells”. Moreover, the “severity of histologic lesions” value in assay [4] (inflammation, mucosal necrosis, epithelial hyperplasia, submucosa edema) is listed as “significantly reduced the severity”. Further, the “colon weights and lengths” value in assay [4] (necropsy 7 weeks post-transfer) is listed as “within the ranges of naïve animals”.
